Test results from ChEMBL document CHEMBL1949578, “Inhibitors of acetyltransferase domain of N-acetylglucosamine-1-phosphate-uridyltransferase/glucosamine-1-phosphate-acetyltransferase (GlmU). Part 1: Hit to lead evaluation of a novel arylsulfonamide series” (Bioorg Med Chem Lett, 2012).

How the values were obtained:
[1] = Inhibition of Haemophilus influenzae acetyltransferase activity of GlmU using acetyl-CoA and glucosamine-1-phosphate after 30 mins by Ellman's method
[2] = Inhibition of Escherichia coli acetyltransferase activity of GlmU using acetyl-CoA and glucosamine-1-phosphate after 30 mins by Ellman's method
[3] = molecular target: Bifunctional protein GlmU (Streptococcus pneumoniae serotype 4 (strain ATCC BAA-334 / TIGR4), UniProt Q97R46); assay: (§1) Inhibition of Streptococcus pneumoniae acetyltransferase activity of GlmU using acetyl-CoA and glucosamine-1-phosphate after 30 mins by Ellman's method
[4] = Inhibition of Staphylococcus aureus acetyltransferase activity of GlmU using acetyl-CoA and glucosamine-1-phosphate after 30 mins by Ellman's method
[5] = Lipophilicity, log D of the compound at pH 7.4; settings: buffer
[6] = molecular target: Bifunctional protein GlmU (Streptococcus pneumoniae serotype 4 (strain ATCC BAA-334 / TIGR4)) (UniProt Q97R46); assay: as §1
Chain of Bifunctional protein GlmU (Streptococcus pneumoniae serotype 4 (strain ATCC BAA-334 / TIGR4)) (Q97R46 whole entry): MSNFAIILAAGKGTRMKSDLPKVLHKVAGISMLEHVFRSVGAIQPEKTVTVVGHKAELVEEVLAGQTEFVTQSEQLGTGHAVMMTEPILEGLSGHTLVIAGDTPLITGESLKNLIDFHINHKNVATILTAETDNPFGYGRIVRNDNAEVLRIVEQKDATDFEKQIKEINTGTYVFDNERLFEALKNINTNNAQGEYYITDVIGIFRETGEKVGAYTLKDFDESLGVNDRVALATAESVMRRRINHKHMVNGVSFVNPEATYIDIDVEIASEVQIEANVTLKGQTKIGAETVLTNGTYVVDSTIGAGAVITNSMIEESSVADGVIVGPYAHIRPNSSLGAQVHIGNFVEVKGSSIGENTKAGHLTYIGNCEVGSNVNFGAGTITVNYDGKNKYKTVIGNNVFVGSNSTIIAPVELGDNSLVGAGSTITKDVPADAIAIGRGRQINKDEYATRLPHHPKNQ

Chain of Bifunctional protein GlmU (Q97R46 whole entry): as above

IC50 [1] [µM] | IC50 [2] [µM] | IC50 [3] [µM] | IC50 [4] [µM] | logD [5] | inhibition [6] [%] | Structure (SMILES)
16 | 2 | > 200 | > 200 |  |  | COc1cc(OC)c(S(=O)(=O)N(c2ccccc2)C(C)C)cc1NC(C)=O
1 | 0.5 | 30 | > 200 | -1.04 |  | COc1cc(OC)c(S(=O)(=O)N2c3ccccc3CCC2C)cc1NC(=S)NCC(=O)O (stereo not drawn)
20 | 4 | > 200 | > 200 |  |  | COc1cc(OC)c(S(=O)(=O)NCc2ccccc2Br)cc1NC(C)=O
54 | 10 | > 200 | > 200 |  |  | COc1ccccc1CNS(=O)(=O)c1cc(NC(C)=O)c(OC)cc1OC
70 | 20 | > 200 | > 200 |  |  | COc1cc(OC)c(S(=O)(=O)Nc2ccccc2)cc1NC(C)=O
3 | < 0.4 | 2 | 10 |  |  | COc1cc(OC)c(S(=O)(=O)NCc2ccccc2N2CCC(CC(=O)O)CC2)cc1NC(=O)CCC(=O)O
40 | 17 | > 200 | > 200 |  |  | COc1cc(OC)c(S(=O)(=O)Nc2cccc(C)c2)cc1NC(C)=O
80 | 40 | 70 | > 200 | 1.03 |  | COc1cc(OC)c(S(=O)(=O)NCc2ccccc2N2CCC(CO)CC2)cc1NC(C)=O
55 | 15 | > 200 | > 200 |  |  | COC(=O)c1ccccc1CNS(=O)(=O)c1cc(NC(C)=O)c(OC)cc1OC
47 | 21 | > 200 | > 200 |  |  | COc1cc(OC)c(S(=O)(=O)Nc2ccc(C)cc2)cc1NC(C)=O
> 200 | 100 | > 200 | > 200 |  |  | COc1cc(OC)c(S(=O)(=O)N2c3ccccc3CCC2C)cc1NS(C)(=O)=O (stereo not drawn)
5 | 0.9 | 15 |  |  |  | COc1cc(OC)c(S(=O)(=O)NCc2ccccc2-c2ccc(C(=O)O)cc2)cc1NC(=O)CCC(=O)O
6 | 3 | 5 | > 200 | < -1 |  | COc1cc(OC)c(S(=O)(=O)NCc2ccccc2N2CCC(CO)CC2)cc1NC(=O)CCC(=O)O
> 200 | 130 | > 200 | > 200 |  |  | COc1cc(OC)c(S(=O)(=O)N2CCCCC2C)cc1NC(C)=O (stereo not drawn)
5 | 0.5 | 20 | > 200 | -1.02 |  | COc1cc(OC)c(S(=O)(=O)N2c3ccccc3CCC2C)cc1NC(=O)NCC(=O)O (stereo not drawn)
6 | 1 | > 200 | > 200 | 2.8 |  | COc1cc(OC)c(S(=O)(=O)N2c3ccccc3CCC2C)cc1NC(=O)CSc1ccncc1 (stereo not drawn)
 | 0.25 |  | > 200 | -1 |  | COc1cc(OC)c(S(=O)(=O)NCc2ccccc2N2CCC(COC(=O)CCC(=O)O)CC2)cc1NC(=O)CCC(=O)O
2 | 2 | 90 | > 200 |  |  | COc1cc(OC)c(S(=O)(=O)N2c3ccccc3CCC2C)cc1NC(=O)COC(C)=O (stereo not drawn)
1 | 0.5 | 2 | 50 |  |  | COc1cc(OC)c(S(=O)(=O)NCc2ccccc2N2CCC(C(=O)O)CC2)cc1NC(=O)CCC(=O)O

IC50 [1] [µM] | IC50 [2] [µM] | IC50 [3] [µM] | IC50 [4] [µM] | logD [5] | inhibition [6] [%] | Structure (SMILES)
5 | 3 | 12 | > 200 | -0.72 |  | COc1cc(OC)c(S(=O)(=O)NCc2ccccc2N2CCCCC2)cc1NC(=O)CCC(=O)O
0.3 | 0.2 |  | > 200 | -1 | 28 | COc1cc(OC)c(S(=O)(=O)N2c3ccccc3CCC2C)cc1NC(=O)COCC(=O)O (stereo not drawn)
> 200 | > 200 | > 200 | > 200 |  |  | COc1cc(OC)c(S(=O)(=O)N2c3ccccc3CCC2C)cc1NC(=O)c1ccccc1 (stereo not drawn)
> 200 | > 200 | > 200 | > 200 |  |  | COc1cc(OC)c(S(=O)(=O)N2c3ccccc3CCC2C)cc1NC(=O)COc1ccc(C(C)=O)cc1 (stereo not drawn)
60 | 25 | > 200 | > 200 |  |  | COc1cc(OC)c(S(=O)(=O)Nc2ccc(F)cc2)cc1NC(C)=O
2 | 0.5 | 10 | > 200 |  |  | COc1cc(OC)c(S(=O)(=O)N2c3ccccc3CCC2C)cc1NC(=O)/C=C/C(=O)O (stereo not drawn)
0.6 | 0.09 | 20 | > 200 | -0.87 |  | COc1cc(OC)c(S(=O)(=O)N2c3ccccc3CCC2C)cc1NC(=O)CCC(=O)O (stereo not drawn)
6 | 3 | > 200 | > 200 |  |  | COc1cc(OC)c(S(=O)(=O)N(C)c2ccccc2)cc1NC(C)=O
80 | 15 | > 200 | > 200 |  |  | CCN(c1ccccc1C)S(=O)(=O)c1cc(NC(C)=O)c(OC)cc1OC
> 200 | > 200 | > 200 | > 200 |  |  | COc1cc(OC)c(S(=O)(=O)N(C)C)cc1NC(C)=O
> 200 | > 200 | > 200 | > 200 |  |  | COc1cc(OC)c(S(=O)(=O)NCc2ccc3c(c2)OCO3)cc1NC(C)=O
8 |  | > 200 | > 200 |  |  | COc1cc(OC)c(S(=O)(=O)N2c3ccccc3CC2C)cc1NC(C)=O (stereo not drawn)
3 | 1.5 | 55 | > 200 | 1.97 |  | COc1cc(OC)c(S(=O)(=O)N2c3ccccc3CCC2C)cc1NC(C)=O (stereo not drawn)
30 | 15 | > 200 | > 200 |  |  | COc1cc(OC)c(S(=O)(=O)Nc2cccc(F)c2)cc1NC(C)=O
> 200 | > 200 | > 200 | > 200 |  |  | COc1cc(OC)c(S(=O)(=O)N2CCCC2C)cc1NC(C)=O (stereo not drawn)
120 | > 200 |  | > 200 |  |  | COc1cc(OC)c(S(=O)(=O)NCc2ccccc2N2CCCCC2)cc1NC(C)=O
10 | 5 | > 200 | > 200 |  |  | COc1cc(OC)c(S(=O)(=O)Nc2ccccc2F)cc1NC(C)=O
0.2 | 0.1 | > 200 | > 200 | -1.2 |  | COc1cc(OC)c(S(=O)(=O)N2c3ccccc3CCC2C)cc1NC(=O)CSCC(=O)O (stereo not drawn)
> 200 | 80 | > 200 | > 200 |  |  | COc1cc(OC)c(S(=O)(=O)N2CCCCC2)cc1NC(C)=O
